Test results from ChEMBL document CHEMBL1156506, “Changes to the HIV long terminal repeat and to HIV integrase differentially impact HIV integrase assembly, activity, and the binding of strand transfer inhibitors” (J Biol Chem, 2007).

Experiments:
[1] = test system: Human immunodeficiency virus; assay: Binding affinity to HIV wild type integrase using U5 GdC LTR relative to wild type LTR; settings: tested as the 3H-labelled form
[2] = test system: Human immunodeficiency virus type 1 integrase (Human immunodeficiency virus 1), Q7ZJM1 [N155H]; assay: Inhibition of HIV recombinant integrase N155H mutant assessed as specific strand transfer activity using U5 GTCA LTR by scintillation proximity assay relative to wild type LTR; parameters: scale not given: the % may be the effect or the level left; settings: tested as the 3H-labelled form
[3] = test system: Human immunodeficiency virus; assay: Binding affinity to HIV wild type integrase using U5 GACA LTR relative to wild type LTR; settings: tested as the 3H-labelled form
[4] = test system: Human immunodeficiency virus; assay: Binding affinity to HIV wild type integrase using U5 GddA LTR relative to wild type LTR; settings: tested as the 3H-labelled form
[5] = test system: Human immunodeficiency virus; assay: Inhibition of HIV wild type integrase assessed as specific strand transfer activity using U5 INTCA LTR by scintillation proximity assay relative to wild type LTR; parameters: scale not given: the % may be the effect or the level left; settings: tested as the 3H-labelled form
[6] = test system: Human immunodeficiency virus type 1 integrase (Human immunodeficiency virus 1), Q7ZJM1 [N155H]; assay: Binding affinity to HIV recombinant integrase N155H mutant using U5 INTCA LTR relative to wild type LTR; settings: tested as the 3H-labelled form
[7] = test system: Human immunodeficiency virus; assay: Inhibition of HIV wild type integrase assessed as specific strand transfer activity using U5 GTGA LTR by scintillation proximity assay relative to wild type LTR; parameters: scale not given: the % may be the effect or the level left; settings: tested as the 3H-labelled form
[8] = test system: Human immunodeficiency virus type 1 integrase (Human immunodeficiency virus 1), Q7ZJM1 [Q148R]; assay: Binding affinity to HIV recombinant integrase Q148R mutant using U5 GTdA LTR relative to wild type LTR; settings: tested as the 3H-labelled form
[9] = test system: Human immunodeficiency virus; assay: Binding affinity to HIV wild type integrase using U5 GTGT LTR relative to wild type LTR; settings: tested as the 3H-labelled form
[10] = test system: Human immunodeficiency virus; assay: Binding affinity to HIV wild type integrase using U5 ApTCA LTR relative to wild type LTR; settings: tested as the 3H-labelled form
[11] = test system: Human immunodeficiency virus; assay: Inhibition of HIV wild type integrase assessed as strand transfer activity U5 CTCA LTR by scintillation proximity assay relative to wild type LTR; parameters: scale not given: the % may be the effect or the level left; settings: tested as the 3H-labelled form
[12] = test system: Human immunodeficiency virus; assay: Inhibition of HIV wild type integrase assessed as specific strand transfer activity using U5 GdC LTR by scintillation proximity assay relative to wild type LTR; parameters: scale not given: the % may be the effect or the level left; settings: tested as the 3H-labelled form
[13] = test system: Human immunodeficiency virus; assay: Binding affinity to HIV wild type integrase using U5 GTdA LTR relative to wild type LTR; settings: tested as the 3H-labelled form
[14] = test system: Human immunodeficiency virus; assay: Binding affinity to HIV wild type integrase using U5 GTCACA LTR relative to wild type LTR; settings: tested as the 3H-labelled form
[15] = test system: Human immunodeficiency virus type 1 integrase (Human immunodeficiency virus 1), Q7ZJM1 [Q148R]; assay: Inhibition of U5 GTC LTR HIV recombinant integrase Q148R mutant assessed as specific strand transfer activity using by scintillation proximity assay relative to wild type LTR; parameters: scale not given: the % may be the effect or the level left; settings: tested as the 3H-labelled form
[16] = test system: Human immunodeficiency virus; assay: Inhibition of HIV wild type integrase assessed as strand transfer activity using U5 ApTCA LTR by scintillation proximity assay relative to wild type LTR; parameters: scale not given: the % may be the effect or the level left; settings: tested as the 3H-labelled form
[17] = test system: Human immunodeficiency virus; assay: Inhibition of HIV wild type integrase assessed as specific strand transfer activity using U5 GTAA LTR by scintillation proximity assay relative to wild type LTR; parameters: scale not given: the % may be the effect or the level left; settings: tested as the 3H-labelled form
[18] = test system: Human immunodeficiency virus; assay: Inhibition of HIV wild type integrase assessed as specific strand transfer activity using U5 ApTCA LTR by scintillation proximity assay relative to wild type LTR; parameters: scale not given: the % may be the effect or the level left; settings: tested as the 3H-labelled form
[19] = test system: Human immunodeficiency virus; assay: Binding affinity to HIV wild type integrase using U5 GTAA LTR relative to wild type LTR; settings: tested as the 3H-labelled form
[20] = test system: Human immunodeficiency virus type 1 integrase (Human immunodeficiency virus 1), Q7ZJM1 [Q148R]; assay: Binding affinity to HIV recombinant integrase Q148R mutant using U5 ApTCA LTR relative to wild type LTR; settings: tested as the 3H-labelled form
[21] = test system: Human immunodeficiency virus; assay: Binding affinity to HIV wild type integrase using U5 ATCA LTR relative to wild type LTR; settings: tested as the 3H-labelled form
[22] = test system: Human immunodeficiency virus; assay: Inhibition of HIV wild type integrase assessed as strand transfer activity using U5 dTCA LTR by scintillation proximity assay relative to wild type LTR; parameters: scale not given: the % may be the effect or the level left; settings: tested as the 3H-labelled form
[23] = test system: Human immunodeficiency virus; assay: Inhibition of HIV wild type integrase assessed as strand transfer activity using U5 GTGT LTR by scintillation proximity assay relative to wild type LTR; parameters: scale not given: the % may be the effect or the level left; settings: tested as the 3H-labelled form
[24] = test system: Human immunodeficiency virus; assay: Inhibition of HIV wild type integrase assessed as specific strand transfer activity using U5 GTdA LTR by scintillation proximity assay relative to wild type LTR; parameters: scale not given: the % may be the effect or the level left; settings: tested as the 3H-labelled form
[25] = test system: Human immunodeficiency virus; assay: Binding affinity to HIV wild type integrase using U5 GTCC LTR relative to wild type LTR; settings: tested as the 3H-labelled form
[26] = test system: Human immunodeficiency virus; assay: Inhibition of HIV wild type integrase assessed as specific strand transfer activity using U5 GInCA LTR by scintillation proximity assay relative to wild type LTR; parameters: scale not given: the % may be the effect or the level left; settings: tested as the 3H-labelled form
[27] = test system: Human immunodeficiency virus; assay: Inhibition of HIV wild type integrase assessed as strand transfer activity using U5 GTCAGT LTR by scintillation proximity assay relative to wild type LTR; parameters: scale not given: the % may be the effect or the level left; settings: tested as the 3H-labelled form
[28] = test system: Human immunodeficiency virus; assay: Inhibition of HIV wild type integrase assessed as strand transfer activity using U5 GTCA/CG LTR by scintillation proximity assay relative to wild type LTR; parameters: scale not given: the % may be the effect or the level left; settings: tested as the 3H-labelled form
[29] = test system: Human immunodeficiency virus; assay: Binding affinity to HIV wild type integrase using U5 GTCAGT LTR relative to wild type LTR; settings: tested as the 3H-labelled form
[30] = test system: Human immunodeficiency virus; assay: Inhibition of U5 GddA LTR HIV wild type integrase assessed as strand transfer activity using by scintillation proximity assay relative to wild type LTR; parameters: scale not given: the % may be the effect or the level left; settings: tested as the 3H-labelled form
[31] = test system: Human immunodeficiency virus; assay: Binding affinity to HIV wild type integrase using U5 GTAT LTR relative to wild type LTR; settings: tested as the 3H-labelled form
[32] = test system: Human immunodeficiency virus type 1 integrase (Human immunodeficiency virus 1), Q7ZJM1 [Q148R]; assay: Inhibition of HIV recombinant integrase Q148R mutant assessed as strand transfer activity using U5 GTCA LTR by scintillation proximity assay relative to wild type LTR; parameters: scale not given: the % may be the effect or the level left; settings: tested as the 3H-labelled form
[33] = test system: Human immunodeficiency virus; assay: Binding affinity to HIV wild type integrase using U5 GTTC LTR relative to wild type LTR; settings: tested as the 3H-labelled form
[34] = test system: Human immunodeficiency virus; assay: Binding affinity to HIV wild type integrase using U5 TTCA LTR relative to wild type LTR; settings: tested as the 3H-labelled form
[35] = test system: Human immunodeficiency virus; assay: Inhibition of HIV wild type integrase assessed as strand transfer activity using U5 GTAT LTR by scintillation proximity assay relative to wild type LTR; parameters: scale not given: the % may be the effect or the level left; settings: tested as the 3H-labelled form
[36] = test system: Human immunodeficiency virus type 1 integrase (Human immunodeficiency virus 1), Q7ZJM1 [Q148R]; assay: Inhibition of HIV recombinant integrase Q148R mutant assessed as strand transfer activity using U5 TTCA LTR by scintillation proximity assay relative to wild type LTR; parameters: scale not given: the % may be the effect or the level left; settings: tested as the 3H-labelled form
[37] = Inhibition of HIV wild type integrase strand transfer activity; parameters: species or system Human immunodeficiency virus
[38] = test system: Human immunodeficiency virus type 1 integrase (Human immunodeficiency virus 1), Q7ZJM1 [Q148R]; assay: Inhibition of U5 GTdA LTR HIV recombinant integrase Q148R mutant assessed as specific strand transfer activity using by scintillation proximity assay relative to wild type LTR; parameters: scale not given: the % may be the effect or the level left; settings: tested as the 3H-labelled form
[39] = test system: Human immunodeficiency virus type 1 integrase (Human immunodeficiency virus 1), Q7ZJM1 [Q148R]; assay: Inhibition of U5 GTCA LTR HIV recombinant integrase Q148R mutant assessed as specific strand transfer activity using by scintillation proximity assay relative to wild type LTR; parameters: scale not given: the % may be the effect or the level left; settings: tested as the 3H-labelled form
[40] = test system: Human immunodeficiency virus; assay: Binding affinity to HIV wild type integrase U5 GACA/CT LTR relative to wild type LTR; settings: tested as the 3H-labelled form
[41] = test system: Human immunodeficiency virus type 1 integrase (Human immunodeficiency virus 1), Q7ZJM1 [N155H]; assay: Inhibition of HIV recombinant integrase N155H mutant assessed as specific strand transfer activity using U5 ApTCA LTR by scintillation proximity assay relative to wild type LTR; parameters: scale not given: the % may be the effect or the level left; settings: tested as the 3H-labelled form
[42] = test system: Human immunodeficiency virus type 1 integrase (Human immunodeficiency virus 1), Q7ZJM1 [N155H]; assay: Inhibition of HIV recombinant integrase N155H mutant assessed as strand transfer activity using U5 GddA LTR by scintillation proximity assay relative to wild type LTR; parameters: scale not given: the % may be the effect or the level left; settings: tested as the 3H-labelled form
[43] = test system: Human immunodeficiency virus type 1 integrase (Human immunodeficiency virus 1), Q7ZJM1 [N155H]; assay: Inhibition of HIV recombinant integrase N155H mutant assessed as strand transfer activity using U5 GTdA LTR by scintillation proximity assay relative to wild type LTR; parameters: scale not given: the % may be the effect or the level left; settings: tested as the 3H-labelled form
[44] = test system: Human immunodeficiency virus type 1 integrase (Human immunodeficiency virus 1), Q7ZJM1 [N155H]; assay: Inhibition of HIV recombinant integrase N155H mutant assessed as strand transfer activity using U5 INTCA LTR by scintillation proximity assay relative to wild type LTR; parameters: scale not given: the % may be the effect or the level left; settings: tested as the 3H-labelled form
[45] = test system: Human immunodeficiency virus type 1 integrase (Human immunodeficiency virus 1), Q7ZJM1 [N155H]; assay: Inhibition of HIV recombinant integrase N155H mutant assessed as specific strand transfer activity using U5 dTCA LTR by scintillation proximity assay relative to wild type LTR; parameters: scale not given: the % may be the effect or the level left; settings: tested as the 3H-labelled form

With `Cn1c(N2CCCCS2(=O)=O)nc(C(=O)NCc2ccc(F)cc2)c(O)c1=O` [BMS-707035] the Activity [1] was 36%, the Activity [2] was 82% and the Activity [3] was 25%. The Activity [4] was 35%, the Activity [5] was 167% and the Activity [6] was 21%. The Activity [7] was 136%, the Activity [8] was 2% and the Activity [9] was 25%. It also gave an Activity [10] of 24%, an Activity [11] of 40% and an Activity [12] of 19%. It also gave an Activity [13] of 37%, an Activity [14] of 75% and an Activity [15] of 83%. It also gave an Activity [16] of 2%, an Activity [17] of 52% and an Activity [18] of 40%. It also gave an Activity [19] of 25%, an Activity [20] of 0.5% and an Activity [21] of less than 25%. It also gave an Activity [22] of 10%, an Activity [23] of 25% and an Activity [24] of 42%. It also gave an Activity [25] of 75%, an Activity [26] of 115% and an Activity [27] of 75%. It also gave an Activity [28] of less than 25%, an Activity [29] of 75% and an Activity [30] of 1%. It also gave an Activity [31] of less than 25%, an Activity [32] of 26% and an Activity [33] of 25%. For the same compound, the Activity [34] was 8%, the Activity [35] was less than 25% and the Activity [36] was 4%. It also gave an IC50 [37] of 15 nM, an Activity [38] greater than 50% and an Activity [39] of 93%. The Activity [40] was less than 25%, the Activity [41] was greater than 40% and the Activity [42] was 0.6%. For the same compound, the Activity [43] was 17%, the Activity [44] was 23% and the Activity [45] was greater than 40%.
